Values after ≈ are worked out from the molar mass of the structure shown. Blank lines part the entries; values can stand above or below the molecule they belong to. Active and inactive are the calls of the source. No cut-off for these calls is given here.
Experiments:
K562 [1] = experiment: Antiproliferative activity against human K562 cells after 72 hrs by MTT assay; assay type: functional, cell-based; details: K562, 72 h
KB = experiment: Antiproliferative activity against human KB cells after 72 hrs by MTT assay; assay type: functional, cell-based
[2] = Selectivity index, ratio of IC50 for human LO2 cells to IC50 for human HepG2 cells; assay type: toxicity; details: LO2 cells and HepG2 cells, read-out: Ratio IC50
HCT-8 = experiment: Antiproliferative activity against human HCT8 cells after 72 hrs by MTT assay; assay type: functional, cell-based; details: HCT-8, 72 h
HepG2 = experiment: cells; details: Homo sapiens, HepG2, 72 h
L02 = experiment: Cytotoxicity against human LO2 cells after 72 hrs by MTT assay; assay type: cell-based; details: L02, 72 h
MDA-MB-231 [3] = experiment: Antiproliferative activity against human MDA-MB-231 cells after 72 hrs by MTT assay; assay type: functional, cell-based; details: MDA-MB-231, 72 h
[4] = Aqueous solubility in pH 7.4 phosphate buffer by HPLC analysis; assay type: physicochemical
[5] = Toxicity in ICR mouse xenografted with […] cells assessed as decrease in body weight at 10 to 20 mg/kg, iv qd administered for 21 days and measured every 2 days; assay type: organism-based; details: in vivo
[6] = Antitumor activity against […] H22 cells xenografted in ICR mouse assessed as reduction in tumor weight at 20 mg/kg, iv qd for 21 consecutive days and measured every 2 days relative to control; assay type: functional; parameters: scale not given: the % may be the effect or the level left
Tubulin (Sus scrofa) [7] = target: T1, Tubulin (Sus scrofa) (UniProt P02554+P02550); experiment: Inhibition of porcine brain tubulin polymerization measured every 2 mins for 60 mins by spectrophotometric analysis
MDA-MB-231 [8] = experiment: Antimigratory activity against human MDA-MB-231 cells after 48 hrs by transwell assay; assay type: functional, cell-based
Tubulin (Homo sapiens) = Tubulin (Homo sapiens) (UniProt P68371+Q9H4B7+P0DPH7+P68366+Q13509+Q71U36+P04350+Q3ZCM7+P07437+P68363+Q9BQE3+Q6PEY2+Q13885+Q9BVA1+Q9BUF5); experiment: Disruption of microtubule network in human K562 cells at 30 nM after 24 hrs by scanning confocal microscopic analysis
K562 [9] = experiment: Induction of ROS generation in human K562 cells up to 20 nM after 48 hrs in presence of N-acetyl-cycteine by DCF-DA probe-based flow cytometric analysis; assay type: functional, cell-based
Homo sapiens [10] = experiment: Antitumor activity against […] H22 cells xenografted in ICR mouse assessed as reduction in tumor volume at 20 mg/kg, iv qd for 21 consecutive days and measured every 2 days relative to control; assay type: functional, organism-based
K562 [11] = experiment: Induction of apoptosis in human K562 assessed as down regulation of Bcl-xl expression after 48 hrs by Western blot analysis; assay type: functional, cell-based
K562 [12] = experiment: Cell cycle arrest in human K562 cells assessed as decrease in cyclin B1 expression after 48 hrs by Western blot analysis; assay type: functional, cell-based
HUVEC [13] = experiment: Inhibition of tube formation in human HUVEC cells at 5 to 20 nM after 6 hrs by tube formation assay; assay type: functional, cell-based
K562 [14] = experiment: Cell cycle arrest in human K562 cells assessed as decrease in cdc25c expression after 48 hrs by Western blot analysis; assay type: functional, cell-based
K562 [15] = experiment: Induction of apoptosis in human K562 assessed as down regulation of Bcl-2 expression after 48 hrs by Western blot analysis; assay type: functional, cell-based
Tubulin (Sus scrofa) [16] = target: T1, Tubulin (Sus scrofa); experiment: Inhibition of [3H]colchicine binding to biotinylated porcine tubulin at 5 uM after 2 hrs by scintillation proximity assay relative to control; assay type: protein assay
Homo sapiens [17] = experiment: Antitumor activity against […] H22 cells xenografted in ICR mouse assessed as reduction in tumor volume administered intravenously once daily for 21 consecutive days and measured every 2 days; assay type: functional
Homo sapiens [18] = experiment: Antitumor activity against […] H22 cells xenografted in ICR mouse assessed as reduction in tumor weight administered intravenously once daily for 21 consecutive days and measured every 2 days; assay type: functional
Homo sapiens [19] = experiment: Antivascular activity against […] H22 cells xenografted in ICR mouse assessed as decrease in tumor microvessel density at 20 mg/kg, iv qd […] every 2 days for 21 days by CD31/hematoxylin staining-based immunohistochemistry assay; assay type: functional, organism-based
K562 [20] = experiment: Induction of apoptosis in human K562 assessed as chromatin condensation at 5 to 20 nM after 48 hrs by Hoechst 33342 staining-based fluorescence microscopic analysis; assay type: functional, cell-based
K562 [21] = experiment: Cell cycle arrest in human K562 cells assessed as decrease in cdc2 expression after 48 hrs by Western blot analysis; assay type: functional, cell-based
K562 [22] = experiment: Induction of apoptosis in human K562 assessed as upregulation of Bax expression after 48 hrs by Western blot analysis; assay type: functional, cell-based
HUVEC [23] = experiment: Antimigratory activity against human HUVEC cells at 20 nM after 24 hrs by wound healing assay; assay type: functional, cell-based
Tubulin (Sus scrofa) [24] = target: T1, Tubulin (Sus scrofa); experiment: Inhibition of [3H]colchicine binding to biotinylated porcine tubulin at 1 uM after 2 hrs by scintillation proximity assay relative to control; assay type: protein assay
K562 [25] = experiment: Induction of ROS generation in human K562 cells after 48 hrs by DCF-DA probe-based flow cytometric analysis; assay type: functional, cell-based
MDA-MB-231 [26] = experiment: Antiinvasive activity against human MDA-MB-231 cells after 48 hrs by crystal violet staining-based transwell assay; assay type: functional, cell-based
K562 [27] = experiment: Induction of apoptosis in human K562 assessed as nuclear fragmentation at 5 to 20 nM after 48 hrs by Hoechst 33342 staining-based fluorescence microscopic analysis; assay type: functional, cell-based
K562 [28] = experiment: Induction of apoptosis in human K562 assessed as upregulation of Bad expression after 48 hrs by Western blot analysis; assay type: functional, cell-based

T1 sequence (P02550 whole entry, looked up): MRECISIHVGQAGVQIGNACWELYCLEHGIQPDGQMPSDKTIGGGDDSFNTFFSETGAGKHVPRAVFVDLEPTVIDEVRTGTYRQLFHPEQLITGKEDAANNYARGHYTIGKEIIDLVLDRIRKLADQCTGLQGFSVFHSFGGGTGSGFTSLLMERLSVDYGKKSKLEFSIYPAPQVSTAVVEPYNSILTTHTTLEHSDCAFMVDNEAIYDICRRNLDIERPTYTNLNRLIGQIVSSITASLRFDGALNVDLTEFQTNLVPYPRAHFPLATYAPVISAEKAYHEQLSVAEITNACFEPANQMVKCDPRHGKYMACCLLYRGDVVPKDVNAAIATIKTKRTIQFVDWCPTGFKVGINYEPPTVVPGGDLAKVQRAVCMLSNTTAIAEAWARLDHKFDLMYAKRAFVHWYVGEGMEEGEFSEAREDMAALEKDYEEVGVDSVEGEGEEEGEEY
T1 sequence (P02554 whole entry, looked up): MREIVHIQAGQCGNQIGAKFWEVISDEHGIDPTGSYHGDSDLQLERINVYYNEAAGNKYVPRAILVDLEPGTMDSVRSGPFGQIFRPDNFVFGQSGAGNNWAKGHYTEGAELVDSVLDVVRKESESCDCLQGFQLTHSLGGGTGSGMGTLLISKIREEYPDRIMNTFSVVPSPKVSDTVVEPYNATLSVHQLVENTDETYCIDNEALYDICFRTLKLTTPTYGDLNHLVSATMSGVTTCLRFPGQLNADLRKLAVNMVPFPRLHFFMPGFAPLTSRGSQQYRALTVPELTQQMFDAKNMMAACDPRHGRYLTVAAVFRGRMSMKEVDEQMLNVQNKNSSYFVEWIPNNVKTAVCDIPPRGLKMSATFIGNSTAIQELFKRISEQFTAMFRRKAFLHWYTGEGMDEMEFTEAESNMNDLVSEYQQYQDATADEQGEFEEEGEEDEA

Structure (SMILES): COc1ccc(/C=C(\C)C(=O)c2cc(C)nc3ccccc23)cc1OC
IC50 (K562 [1]): 1060 nM

Structure (SMILES): COc1ccc(/C=C/C(=O)c2cc(OC)c(OC)c(OC)c2)cc1O
IC50 (KB): 108 nM | IC50 (HCT-8): 104 nM | solubility [4]: 3.2 µg/mL (≈ 9.29 µM) | IC50 (MDA-MB-231 [3]): 102 nM

Structure (SMILES): COc1ccc(/C=C(\C)C(=O)c2cc(C)nc3ccccc23)cc1O.Cl
Activity [5]: Non-Toxic | solubility [4]: > 1000 µg/mL | Activity [6]: 68.9%

Structure (SMILES): CNc1cc(C(=O)/C(C)=C/c2ccc(OC)c(O)c2)c2ccccc2n1
IC50 (KB): 29 nM | selectivity ratio [2]: 40.2 | IC50 (HCT-8): 40 nM | IC50 (HepG2): 27 nM | IC50 (K562 [1]): 18 nM | IC50 (L02): 1090 nM | IC50 (MDA-MB-231 [3]): 43 nM

Structure (SMILES): CSc1ccc(/C=C(\C)C(=O)c2cc(C)nc3ccccc23)cc1
IC50 (K562 [1]): 563 nM

Structure (SMILES): COc1ccc(/C=C(\C)C(=O)c2cc(C)nc3ccccc23)cc1F
IC50 (K562 [1]): 69 nM

Structure (SMILES): CCNc1cc(C(=O)/C(C)=C/c2ccc(OC)c(O)c2)c2ccccc2n1
IC50 (K562 [1]): 40 nM

Structure (SMILES): COc1ccc(/C=C(\C)C(=O)c2cc(C)nc3ccccc23)cc1O
inhibition (Tubulin (Sus scrofa) [7]): Dose-dependent effect | Activity (MDA-MB-231 [8]): Dose-dependent effect | Activity (Tubulin (Homo sapiens)): Active | Activity (K562 [9]): inactive | Activity (Homo sapiens [10]): Active | Activity (K562 [11]): Dose-dependent effect | Activity (K562 [12]): Dose-dependent effect | inhibition (HUVEC [13]): Active | Activity (K562 [14]): Dose-dependent effect | Activity (K562 [15]): Dose-dependent effect | inhibition (Tubulin (Sus scrofa) [16]): 92.7% | Activity (Homo sapiens [17]): Dose-dependent effect | Activity (Homo sapiens [18]): Dose-dependent effect | Activity (Homo sapiens [19]): Active | Activity (K562 [20]): Active | Activity (K562 [21]): Dose-dependent effect | Activity (K562 [22]): Dose-dependent effect | Activity (HUVEC [23]): Active | inhibition (Tubulin (Sus scrofa) [24]): 79.4% | Activity (K562 [25]): Dose-dependent effect | Activity (MDA-MB-231 [26]): Dose-dependent effect | Activity (K562 [27]): Active | Activity (K562 [28]): Dose-dependent effect

Structure (SMILES): COc1ccc2c(/C=C(\C)C(=O)c3cc(C)nc4ccccc34)c[nH]c2c1
IC50 (K562 [1]): > 1000 nM

Structure (SMILES): COc1ccc(/C=C(\C)C(=O)c2cc(N(C)C)nc3ccccc23)cc1O
IC50 (KB): 43 nM | IC50 (HCT-8): 52 nM | IC50 (HepG2): 57 nM | IC50 (K562 [1]): 49 nM | IC50 (MDA-MB-231 [3]): 48 nM

The next lines start with results.

IC50 (KB): 25 nM | IC50 (HCT-8): 36 nM | IC50 (HepG2): 36 nM | IC50 (K562 [1]): 11 nM | IC50 (MDA-MB-231 [3]): 63 nM
Structure (SMILES): COc1ccc(/C=C(\C)C(=O)c2cc(C)nc3ccccc23)cc1N
selectivity ratio [2]: 25.6 | IC50 (L02): 923 nM

IC50 (K562 [1]): 108 nM
Structure (SMILES): COc1ccc(/C=C(\C)C(=O)c2cc(C)nc3ccccc23)cc1

IC50 (KB): 52 nM | IC50 (HCT-8): 61 nM | IC50 (HepG2): 38 nM | IC50 (K562 [1]): 26 nM | IC50 (MDA-MB-231 [3]): 52 nM
Structure (SMILES): COc1cc(C(=O)/C(C)=C/c2ccc(OC)c(O)c2)c2ccccc2n1
selectivity ratio [2]: 24.1 | IC50 (L02): 914 nM

IC50 (KB): 429 nM | IC50 (HCT-8): 421 nM | IC50 (HepG2): 226 nM | IC50 (K562 [1]): 346 nM | IC50 (MDA-MB-231 [3]): 425 nM
Structure (SMILES): C/C(=C\c1ccc2[nH]ccc2c1)C(=O)c1cc(C)nc2ccccc12

IC50 (K562 [1]): > 1000 nM
Structure (SMILES): Cc1cc(C(=O)/C=C/c2ccc3[nH]ccc3c2)c2ccccc2n1

IC50 (K562 [1]): > 1000 nM
Structure (SMILES): C/C(=C\c1cccc2[nH]ccc12)C(=O)c1cc(C)nc2ccccc12

Source: ChEMBL document CHEMBL4330075, “Discovery of Novel Quinoline-Chalcone Derivatives as Potent Antitumor Agents with Microtubule Polymerization Inhibitory Activity” (J Med Chem, 2019)
